# PMC11078746 (Nature, 2024)
# Where two headings read alike, the source gives them in different places.
# Experiments:
# [1] = MDCK LE permeability; format: in vitro ADME, canine; conditions: dog
# [2] = tested on: OVK18; assay: CFA 10-14 day clonogenic assay; format: cell-based; conditions: Homo sapiens
# [3] = tested on: JHUEM1; assay: 4 day proliferation assay (CellTiter-Glo); conditions: Homo sapiens, 96 h, read-out: 4 day assay GI50
# [4] = tested on: 2313287; assay: CFA 10-14 day clonogenic assay; format: cell-based; conditions: Homo sapiens
# [5] = tested on: RKO; assay: CFA 10-14 day clonogenic assay; format: cell-based; conditions: Homo sapiens
# [6] = tested on: RL952; assay: 4 day proliferation assay (CellTiter-Glo); conditions: Homo sapiens, RL95-2, 96 h, read-out: 4 day assay GI50
# [7] = target: COX1 (Homo sapiens, UniProt P23219); assay: Safety pharmacology panel
# COX1, sequence (P23219 24-599): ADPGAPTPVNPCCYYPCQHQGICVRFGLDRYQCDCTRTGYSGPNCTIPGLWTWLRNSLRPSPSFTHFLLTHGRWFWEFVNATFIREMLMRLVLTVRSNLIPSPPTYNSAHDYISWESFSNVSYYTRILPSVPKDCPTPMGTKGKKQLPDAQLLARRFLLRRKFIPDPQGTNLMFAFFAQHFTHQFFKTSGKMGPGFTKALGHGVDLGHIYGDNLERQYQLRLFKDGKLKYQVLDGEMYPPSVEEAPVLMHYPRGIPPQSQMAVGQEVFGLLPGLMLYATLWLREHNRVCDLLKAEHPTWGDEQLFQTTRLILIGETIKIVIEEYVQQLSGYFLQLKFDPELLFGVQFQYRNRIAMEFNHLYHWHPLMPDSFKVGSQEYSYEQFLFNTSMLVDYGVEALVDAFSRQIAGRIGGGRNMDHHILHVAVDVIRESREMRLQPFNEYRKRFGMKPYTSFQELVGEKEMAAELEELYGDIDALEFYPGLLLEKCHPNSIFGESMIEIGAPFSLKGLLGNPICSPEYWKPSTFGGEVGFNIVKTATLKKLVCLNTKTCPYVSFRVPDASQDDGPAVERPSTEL
# [8] = tested on: WRN protein in MSI and MSS cells; assay: WRN degradation (immunoblot, ELISA); format: cell-based, human
# Experimental: A list of all of the antibodies is provided in Supplementary Table 2. […] The plates were washed in PBS and 200 µl per well of blocking reagent added (PBS, 0.05% Tween-20, 5% skimmed milk), and the plates were incubated for a minimum of 2 h at room temperature. […] The plates were then washed and 50 µl of secondary antibody per well diluted in blocking buffer was added and the plates were incubated overnight at 4 °C. The next day, 50 µl of tertiary antibody was added per well buffer and the plates were incubated for 2 h at room temperature. […] The plates were shaken and luminescence was detected immediately on the Synergy HT microplate reader.
# [9] = tested on: LS180; assay: CFA 10-14 day clonogenic assay; format: cell-based; conditions: Homo sapiens
# [10] = tested on: CAL33; assay: CFA 10-14 day clonogenic assay; format: cell-based; conditions: Homo sapiens, CAL-33
# [11] = tested on: LOVO; assay: 4 day proliferation assay (CellTiter-Glo); conditions: Homo sapiens, 96 h, read-out: 4 day assay GI50
# [12] = tested on: CL34; assay: 4 day proliferation assay (CellTiter-Glo); conditions: Homo sapiens, 96 h, read-out: 4 day assay GI50
# [13] = tested on: SNUC4; assay: 4 day proliferation assay (CellTiter-Glo); conditions: Homo sapiens, SNU-C4, 96 h, read-out: 4 day assay GI50
# [14] = tested on: RL952; assay: CFA 10-14 day clonogenic assay; format: cell-based; conditions: Homo sapiens, RL95-2
# [15] = tested on: SW48; assay: 4 day proliferation assay (CellTiter-Glo); conditions: for GI50: Homo sapiens, SW48, 96 h
# [16] = tested on: HCT116 cells; conditions: after HRO761 treatment
# Experimental: Membranes were incubated overnight with the primary antibodies and for 1 h with the secondary antibodies. Washing steps were performed with 1× PBS containing 0.01% Tween-20. […] We performed the immunoblots three times except for blots shown in Figs. 2e and 4c and Extended Data Figs. 6b and 8f, which were performed twice. […] Uncropped and unprocessed scans of all blots are available as a Supplementary Figs. 1 (main text figures, which contain Figs. 2d,e, 3a,g and 4c) and 2 (Extended Data Figs. 1d,h,i, 3b–e,h,i, 5, 6a,b, 7c, 8b,g) in the Supplementary Information.
# [17] = tested on: RKO; assay: 4 day proliferation assay (CellTiter-Glo); conditions: Homo sapiens, 96 h, read-out: 4 day assay GI50
# [18] = tested on: Ishikawa; assay: 4 day proliferation assay (CellTiter-Glo); conditions: Homo sapiens, 96 h, read-out: 4 day assay GI50
# [19] = tested on: JHUEM2; assay: 4 day proliferation assay (CellTiter-Glo); conditions: Homo sapiens, 96 h, read-out: 4 day assay GI50
# [20] = tested on: JHUEM1; assay: CFA 10-14 day clonogenic assay; format: cell-based; conditions: Homo sapiens
# [21] = tested on: HCT116; assay: CFA 10-14 day clonogenic assay; format: cell-based; conditions: Homo sapiens, HCT-116
# [22] = tested on: SNUC5; assay: CFA 10-14 day clonogenic assay; format: cell-based; conditions: Homo sapiens
structure (smiles),measurement,setting,value
CCc1c(N2CCN(C(=O)c3ncnc(C)c3O)CC2)c(=O)n2nc(C3=CCOCC3)nc2n1CC(=O)Nc1ccc(C(F)(F)F)cc1Cl [HRO761],Papp A→B,[1]; A-B,30 ×10⁻⁶ cm/s
same,Papp,[1]; Fig. 1b,31 ×10⁻⁶ cm/s
same,GI50,[2],150 nM
same,GI50,[3],946 nM
same,GI50,[4],2080 nM
same,GI50,[5],243 nM
same,GI50,[6],144 nM
same,Safety pharmacology panel: COX1,[7],9 μM
same,"WRN degradation, dependence on MSI/MSS status",[8],only in MSI cells
same,GI50,[9],131 nM
same,GI50,[10],≥ 10000 nM
same,GI50,[11],1240 nM
same,GI50,[12],231 nM
same,GI50,[13],145 nM
same,GI50,[14],16 nM
same,GI50,[15]; HRO761 alone,100 nM
same,GI50,[15]; HRO761 dose response with 3.2 µM ATMi KU-55933,200 nM
same,GI50,"[15]; read-out: 4 day assay GI50, SW48",58 nM
same,unbound GI90,[15]; SW48,160 nM
same,start of WRN degradation,[16],8 h
same,GI50,[17],2910 nM
same,GI50,[18],228 nM
same,GI50,[19],≥ 10000 nM
same,GI50,[20],35 nM
same,GI50,[21],59 nM
same,GI50,[22],418 nM
